Assay results reported in PMC7114325 (Antiviral Research, 2008).

Assays:
[1] = system: West Nile virus; settings: cited from earlier work
[2] = in vitro; settings: hamster
[3] = in vitro; settings: African green monkey
[4] = system: BHK-21 cells
[5] = system: Vero E6 cells

| Compound | activity against West Nile virus [1] | CC50 [2] | CC50 [3] | CC50 [4] | CC50 [5] |
| --- | --- | --- | --- | --- | --- |
| NC(=O)CCS(=O)(=O)c1ccc(Cl)cc1 [Compound C03455, 3-(4-Chlorobenzenesulfonyl)-propionamide] | active | 87 ± 5.23 µM | > 100 µM |  |  |
| N#Cc1c(N)nc(Sc2ccc(Cl)cc2)c(C#N)c1-c1cccs1 [Compound C47655, 2-Amino-6-[(4-chlorophenyl)thio]-4-(2-thienyl)pyridine-3,5-dicarbonitrile] |  | > 100 µM | > 100 µM |  |  |
| CC(C)=CCC[C@](C)(O)C1CC[C@@H]2C1CC[C@H]1C2(C)CC[C@H]2C(C)(C)C(=O)CCC12C (stereo partly drawn) [Compound C01225, (5R,9S,14R)-dodecahydro-17-((S)-2-hydroxy-6-methylhept-5-en-2-yl)-4,4,8,10-tetramethyl-2Hcyclopenta[a]phenanthren-3(4H,9H,14H)-one] |  | > 100 µM | > 100 µM |  |  |
| CCOC(=O)c1cnc2ccc(OCC)cc2c1NCc1ccccc1 [Compound C26505, 4-Benzylamino-6-ethoxy-quinoline-3-carboxylic acid ethylester] | active | 78 ± 4.87 µM | > 100 µM |  |  |
| COc1cc(/C=C(/NC(=O)c2ccccc2)C(=O)NNC(=O)CN)ccc1O [Compound C11472, (E)-N′-(2-aminoacetyl)-2-(benzamido)-3-(4-hydroxy-3-methoxyphenyl)acrylohydrazide] |  | > 100 µM | 82 ± 4.33 µM |  |  |
| CC1=C(C(=O)OCCc2ccccc2)C(c2ccccc2[N+](=O)[O-])C2=C(CCCC2=O)N1 (stereo not shown) [Compound C12344, 3-Quinolinecarboxylic acid, 1,4,5,6,7,8-hexahydro-2-methyl-4-(2-nitrophenyl)-5-oxo-, 2-phenylethyl ester] |  | > 100 µM | > 100 µM |  |  |
| S-Nitroso-N-acetyl penicillamine [Compound C38477] |  |  |  | 58 ± 1.22 µM | 84 ± 2.96 µM |
